Read-outs that look alike come from different tables or passages of the source.
How the values were obtained:
[1] = system: K562; experiment: Cell growth, CellTiter-Glo Luminescent Cell Viability Assay (antiproliferative assay); assay type: cell-based; settings: K562 cells, incubated for 72 h
Text: (§1) CellTiter-Glo® Luminescent Cell Viability Assay (Promega) is a homogeneous method of determining the number of viable cells in culture based on quantitation of the present ATP, which indicates the presence of metabolically active cells. The homogeneous assay procedure involves addition of a single reagent (CellTiter-Glo® Reagent) directly to the cells, which leads to cell lysis and generation of a luminescent signal proportional to the amount of the ATP and the number of cells present in culture. The assay relies on the properties of a proprietary thermostable luciferase (Ultra-Glo® recombinant luciferase), which generates a luminescent signal. K562, A549, and HCT-116 cells, in exponential growth, were incubated for 72 h with different concentrations of the inhibitors. After 72 h, a volume of CellTiter-Glo® Reagent equal to the volume of cell culture medium was added. The content was mixed for 2 min to induce cell lysis. The luminescence was recorded after further 10 min at RT in order to obtain a stable luminescent signal.
(§2) The IC50 was calculated using GraphPad Software.

[2] = system: HCT-116; experiment: as above; assay type: cell-based; settings: HCT-116 cells, incubated for 72 h, read-out: HCT116 IC50
Text: as §1, §2

[3] = system: A549; experiment: as above; assay type: cell-based; settings: A549 cells, incubated for 72 h
Text: as §1, §2

[4] = molecular target: HDAC; experiment: Assay of enzyme inhibition of HDAC (BIOMOL kit, fluorescence); assay type: biochemical; settings: nuclear fraction of Hela cells; substrate 200 µM; 15 min at RT
Procedure: The in-vitro activity of HDAC inhibitors was assayed using a BIOMOL Kit, according to the instructions from the manufacturer (Biomolecular Research Laborator). 15 µl of 30 x diluted nuclear fraction of Hela cells, was diluted to 50 µl with the assay buffer containing the HDAC inhibitor and the substrate (lysine with acetylated amino group on the side chain) at a concentration of 200 µM. The samples were incubated for 15 min at RT and then exposed to a developer (10 min at RT). In this last step a fluorophore was produced, whose fluorescence was measured using an excitation wavelength of 355 nm and an emission at 460 nm. The IC50 was calculated using GraphPad Software.

SMILES	IC50 ([1]; Homo sapiens)	IC50 ([2]; Homo sapiens)	IC50 ([3]; Homo sapiens)	IC50 [4]	IC50 [1]	IC50 [2]	IC50 [3]
O=C(/C=C/c1ccc2c(c1)C(=O)CC1(CCCN(Cc3ccc(F)cc3)CC1)O2)NO (racemic) [Example 29, (±)-(E)-3-[1'-(4-Fluoro-benzyl)-4-oxo-spiro(chromane-2,4'-azepane)-6-yl]-N-hydroxy-acrylamide]	≤ 1000 nM	≤ 1000 nM	≤ 1000 nM	100 to 1000 nM			
O=C(/C=C/c1ccc2c(c1)C(=O)NC1(CCCNC1)O2)NO (racemic) [Example 39, (±)-(E)-3-{3,4-Dihydro-4-oxo-spiro[2H-(1,3)-benzoxazine-2,3'-piperidin]-6-yl}-N-hydroxy-acrylamide]	1000 to 3000 nM	1000 to 3000 nM	≥ 3000 nM	100 to 1000 nM			
O=C(/C=C/c1ccc2c(c1)C(=O)NC1(CCCN(Cc3ccccc3)C1)O2)NO (racemic) [Example 40, (±)-(E)-3-{1'-Benzyl-3,4-dihydro-4-oxo-spiro[2H-(1,3)-benzoxazine-2,3'-piperidin]-6-yl}-N-hydroxy-acrylamide]	≤ 1000 nM	≤ 1000 nM	≤ 1000 nM	≤ 100 nM			
CN1CCCC2(C1)NC(=O)c1cc(/C=C/C(=O)NO)ccc1O2 (racemic) [Example 41, (±)-(E)-3-{1'-Methyl-3,4-dihydro-4-oxo-spiro[2H-(1,3)-benzoxazine-2,3'-piperidin]-6-yl}-N-hydroxy-acrylamide]	≤ 1000 nM	≤ 1000 nM	1000 to 3000 nM	100 to 1000 nM			
O=C(/C=C/c1ccc2c(c1)C(=O)NC1(CCCN(Cc3ccc(F)cc3)C1)O2)NO (racemic) [Example 42, (±)-(E)-3-{1'-(4-Fluoro-benzyl)-3,4-dihydro-4-oxo-spiro[2H-(1,3)-benzoxazine-2,3'-piperidin]-6-yl}-N-hydroxy-acrylamide]	≤ 1000 nM	≤ 1000 nM	1000 to 3000 nM	100 to 1000 nM			
O=C(/C=C/c1ccc2c(c1)C(=O)NC1(CCCN(CCc3ccccc3)C1)O2)NO (racemic) [Example 43, (±)-(E)-3-{1'-(2-Phenyl-ethyl)-3,4-dihydro-4-oxo-spiro[2H-(1,3)-benzoxazine-2,3'-piperidin]-6-yl}-N-hydroxy-acrylamide]	≤ 1000 nM	≤ 1000 nM	≤ 1000 nM	≤ 100 nM			
Cn1cc(CN2CCCC3(CC(=O)c4cc(/C=C/C(=O)NO)ccc4O3)C2)c2ccccc21 (racemic) [Example 45, (±)-(E)-3-[1'-(1-Methyl-1H-indol-3-ylmethyl)-4-oxo-spiro(chromane-2,3'-piperidine)-6-yl]-N-hydroxy-acrylamide]	≤ 1000 nM	≤ 1000 nM	≤ 1000 nM	100 to 1000 nM			
Cn1cc(CN2CCCC3(C2)NC(=O)c2cc(/C=C/C(=O)NO)ccc2O3)c2ccccc21 (racemic) [Example 46, (±)-(E)-3-{1'-(1-Methyl-1H-indol-3-ylmethyl)-4-oxo-spiro[2H-(1,3)-benzoxazine-2,3'-piperidin]-6-yl}-N-hydroxy-acrylamide]	≤ 1000 nM	≤ 1000 nM	≤ 1000 nM	100 to 1000 nM			
CC(C)N1CCCC2(CC(=O)c3cc(/C=C/C(=O)NO)ccc3O2)C1 (racemic) [Example 49, (±)-(E)-3-[1'-Isopropyl-4-oxo-spiro(chromane-2,3'-piperidine)-6-yl]-N-hydroxy-acrylamide]	≤ 1000 nM	≤ 1000 nM	≤ 1000 nM	100 to 1000 nM			
O=C(/C=C/c1ccc2c(c1)C(=O)CC1(CCCN(C3CCCC3)C1)O2)NO (racemic) [Example 50, (±)-(E)-3-[1'-Cyclopentyl-4-oxo-spiro(chromane-2,3'-piperidine)-6-yl]-N-hydroxy-acrylamide]	≤ 1000 nM	≤ 1000 nM	≤ 1000 nM	≤ 100 nM			
O=C(/C=C/c1ccc2c(c1)C(=O)CC1(CCN(Cc3ccccc3)C1)O2)NO (single isomer, unassigned; (+)) [Example 4, (+)-(E)-3-[1'-Benzyl-4-oxo-spiro(chromane-2,3'-pyrrolidine)-6-yl]-N-hydroxy-acrylamide]				≤ 100 nM	≤ 1000 nM	≤ 1000 nM	≤ 1000 nM
O=C(/C=C/c1ccc2c(c1)C(=O)CC1(CCCN(Cc3ccccc3)C1)O2)NO (single isomer, unassigned; (+)) [Example 18, (+)-(E)-3-[1'-Benzyl-4-oxo-spiro(chrormane-2,3'-piperidine)-6-yl]-N-hydroxy-acrylamide]	≤ 1000 nM	≤ 1000 nM	1000 to 3000 nM	100 to 1000 nM			
O=C(/C=C/c1ccc2c(c1)C(=O)CC1(CCN(Cc3ccccc3)C1)O2)NO (single isomer, unassigned; (-)) [Example 3, (-)-(E)-3-[1 '-Benzyl-4-oxo-spiro(chromane-2,3'-pyrrolidine)-6-yl]-N-hydroxy-acrylamide]	≤ 1000 nM	≤ 1000 nM	≤ 1000 nM	≤ 100 nM			
O=C(/C=C/c1ccc2c(c1)C(=O)CC1(CCCN(Cc3ccccc3)C1)O2)NO (single isomer, unassigned; (-)) [Example 17, (-)-(E)-3-[1'-Benzyl-4-oxo-spiro(chromane-2,3'-piperidine)-6-yl]-N-hydroxy-acrylamide]	≤ 1000 nM	≤ 1000 nM	1000 to 3000 nM	≤ 100 nM			
O=C(/C=C/c1ccc2c(c1)C(=O)CC1(CNC1)O2)NO [Example 30, (E)-3-[4-Oxo-spiro(chromane-2,3'-azetidine)-6-yl]-N-hydroxy-acrylamide]	1000 to 3000 nM	≥ 3000 nM	≥ 3000 nM	100 to 1000 nM			
O=C(/C=C/c1ccc2c(c1)C(=O)CC1(CN(Cc3ccccc3)C1)O2)NO [Example 31, (E)-3-[1'-Benzyl-4-oxo-spiro(chromane-2,3'-azetidine)-6-yl]-N-hydroxy-acrylamide]	≤ 1000 nM	≤ 1000 nM	≤ 1000 nM	≤ 100 nM			
O=C(/C=C/c1ccc2c(c1)C(=O)CC1(CN(CCc3ccccc3)C1)O2)NO [Example 32, (E)-3-[1'-(2-Phenyl-ethyl)-4-oxo-spiro(chromane-2,3'-azetidine)-6-yl]-N-hydroxy-acrylamide]	≤ 1000 nM	≤ 1000 nM	≤ 1000 nM	100 to 1000 nM			
O=C(/C=C/c1ccc2c(c1)C(=O)CC1(CN(Cc3ccc(F)cc3)C1)O2)NO [Example 33, (E)-3-[1'-(4-Fluoro-benzyl)-4-oxo-spiro(chromane-2,3'-azetidine)-6-yl]-N-hydroxy-acrylamide]	≤ 1000 nM	≤ 1000 nM	≤ 1000 nM	100 to 1000 nM			
CN1CC2(CC(=O)c3cc(/C=C/C(=O)NO)ccc3O2)C1 [Example 34, (E)-3-[1'-Methyl-4-oxo-spiro(chromane-2,3'-azetidine)-6-yl]-N-hydroxy-acrylamide]	≤ 1000 nM	≤ 1000 nM	≤ 1000 nM	100 to 1000 nM			
O=C(/C=C/c1ccc2c(c1)C(=O)CC1(CN(CCc3ccc(F)cc3)C1)O2)NO [Example 35, (E)-3-{1'-[2-(4-Fluoro-phenyl)-ethyl]-4-oxo-spiro(chromane-2,3'-azetidine)-6-yl}-N-hydroxy-acrylamide]	≤ 1000 nM	≤ 1000 nM	1000 to 3000 nM	100 to 1000 nM			
CC(=O)N1CC2(CC(=O)c3cc(/C=C/C(=O)NO)ccc3O2)C1 [Example 36, (E)-3-[1'-Acetyl-4-oxo-spiro(chromane-2,3'-azetidine)-6-yl]-N-hydroxy-acrylamide]	≥ 3000 nM	≥ 3000 nM	≥ 3000 nM	100 to 1000 nM			
O=C(/C=C/c1ccc2c(c1)C(=O)CC1(CN(C(=O)c3ccccc3)C1)O2)NO [Example 37, (E)-3-[1'-Benzoyl-4-oxo-spiro(chromane-2,3'-azetidine)-6-yl]-N-hydroxy-acrylamide]	≤ 1000 nM	≤ 1000 nM	1000 to 3000 nM	≤ 100 nM			
CCOC(=O)N1CC2(CC(=O)c3cc(/C=C/C(=O)NO)ccc3O2)C1 [Example 38, (E)-3-[1'-Ethyloxycarbonyl-4-oxo-spiro(chromane-2,3'-azetidine)-6-yl]-N-hydroxy-acrylamide]	1000 to 3000 nM	1000 to 3000 nM	≥ 3000 nM	100 to 1000 nM			
Cn1cc(CN2CC3(CC(=O)c4cc(/C=C/C(=O)NO)ccc4O3)C2)c2ccccc21 [Example 44, (E)-3-[1'-(1-Methyl-1H-indol-3-ylmethyl)-4-oxo-spiro(chromane-2,3'-azetidine)-6-yl]-N-hydroxy-acrylamide]	≤ 1000 nM	≤ 1000 nM	≤ 1000 nM	≤ 100 nM			
